# Experimental data published in patent US10314823B2, “Substituted 1,2-dihydro-3H-pyrrolo[1,2-c]imidazol-3-one antibacterial compounds” (IDORSIA PHARMACEUTICALS LTD, priority 2015, dated 2019).
# Legend:
# Test in all cases: Bacterial growth minimal inhibitory concentration (CLSI broth microdilution)
# Assay type in all cases: cell-based
# E. coli ATCC25922 = conditions: quinolone-sensitive strain, cation-adjusted Mueller-Hinton Broth; for MIC: Escherichia coli, ATCC25922
# Experimental: (§1) Minimal Inhibitory Concentrations (MICs; mg/L) were determined in cation-adjusted Mueller-Hinton Broth by a microdilution method following the description given in “Methods for Dilution Antimicrobial Susceptibility Tests for Bacteria that Grow Aerobically”, Approved standard, 7th ed., Clinical and Laboratory Standards Institute (CLSI) Document M7-A7, Wayne, Pa., USA (2006).
# (§2) All Reference Example compounds were tested against several Gram-negative bacteria. K. pneumoniae A-651 is a multiply resistant strain (in particular quinolone-resistant), while E. coli ATCC25922 and P. aeruginosa ATCC27853 are quinolone-sensitive strains. The corresponding antibacterial test results are given in Table 1 hereafter (MICs in mg/L).
# K. pneumoniae A-651 = conditions: multiply resistant strain (in particular quinolone-resistant), cation-adjusted Mueller-Hinton Broth; for MIC: Klebsiella pneumoniae, A651
# Experimental: as §1, §2
# P. aeruginosa ATCC27853 = conditions: quinolone-sensitive strain, cation-adjusted Mueller-Hinton Broth; for MIC: Pseudomonas aeruginosa, ATCC27853
# Experimental: as §1, §2
Compound,MIC (E. coli ATCC25922),MIC (K. pneumoniae A-651),MIC (P. aeruginosa ATCC27853),MIC for E. coli ATCC25922 (E. coli ATCC25922),MIC for K. Pneumoniae A-651 (K. pneumoniae A-651),MIC for P. aeruginosa ATCC27853 (P. aeruginosa ATCC27853)
"C[C@@](CCN1Cc2cc(C#Cc3ccc(CN4CC[C@H](O)[C@H](F)C4)cc3)cn2C1=O)(C(=O)NO)S(C)(=O)=O (relative stereo) [Example 42, (2R)-4-(6-((4-(((3R*,4S*)-3-fluoro-4-hydroxypiperidin-1-yl)methyl)phenyl)ethynyl)-3-oxo-1H-pyrrolo[1,2-c]imidazol-2(3H)-yl)-N-hydroxy-2-methyl-2-(methylsulfonyl)butanamide]",0.5 µg/mL,1 µg/mL,2 µg/mL,–,–,–
"C[C@@](CCN1Cc2cc(C#Cc3ccc([C@@H](O)CN4CCOCC4)cc3)cn2C1=O)(C(=O)NO)S(C)(=O)=O (single isomer, unassigned) [Example 1]",1 µg/mL,2 µg/mL,2 µg/mL,–,–,–
"C[C@@](CCN1Cc2cc(C#CC#CC3CN(C4CC(O)C4)C3)cn2C1=O)(C(=O)NO)S(C)(=O)=O (stereo partly drawn) [Example 90, (2R)—N-hydroxy-4-(6-((1-((1r,3r)-3-hydroxycyclobutyl)azetidin-3-yl)buta-1,3-diyn-1-yl)-3-oxo-1H-pyrrolo[1,2-c]imidazol-2(3H)-yl)-2-methyl-2-(methylsulfonyl)butanamide]",–,–,–,0.5 mg/L,0.5 mg/L,1 mg/L
"C[C@@](CCN1Cc2cc(C#CC#CCN3CCOC3=O)cn2C1=O)(C(=O)NO)S(C)(=O)=O [Example 9, (2R)—N-hydroxy-2-methyl-2-(methylsulfonyl)-4-(3-oxo-6-(5-(2-oxooxazolidin-3-yl)penta-1,3-diyn-1-yl)-1H-pyrrolo[1,2-c]imidazol-2(3H)-yl)butanamide]",2 µg/mL,4 µg/mL,8 µg/mL,–,–,–
"C[C@@](CCN1Cc2cc(C#Cc3ccc(CN4CC5(COC5)C4)cc3)cn2C1=O)(C(=O)NO)S(C)(=O)=O [Example 3, (2R)-4-(6-((4-((2-oxa-6-azaspiro[3.3]heptan-6-yl)methyl)phenyl)ethynyl)-3-oxo-1H-pyrrolo[1,2-c]imidazol-2(3H)-yl)-N-hydroxy-2-methyl-2-(methylsulfonyl)butanamide]",0.25 µg/mL,1 µg/mL,1 µg/mL,–,–,–
"C[C@@](CCN1Cc2cc(C#CC#CC3CNC3)cn2C1=O)(C(=O)NOC1CCCCO1)S(C)(=O)=O (stereo partly drawn) [Example 31, (2R)-4-(6-(azetidin-3-ylbuta-1,3-diyn-1-yl)-3-oxo-1H-pyrrolo[1,2-c]imidazol-2(3H)-yl)-2-methyl-2-(methylsulfonyl)-N-((tetrahydro-2H-pyran-2-yl)oxy)butanamide]",–,–,–,8 mg/L,8 mg/L,1 mg/L
"C[C@@](CCN1Cc2cc(C#Cc3ccc(C4(F)CNC4)cc3)cn2C1=O)(C(=O)NO)S(C)(=O)=O [Example 15, (2R)-4-(6-((4-(3-fluoroazetidin-3-yl)phenyl)ethynyl)-3-oxo-1H-pyrrolo[1,2-c]imidazol-2(3H)-yl)-N-hydroxy-2-methyl-2-(methylsulfonyl)butanamide]",0.5 µg/mL,2 µg/mL,1 µg/mL,–,–,–
"C[C@@](CCN1Cc2cc(C#CC#CC3(F)CCN(C4COC4)CC3)cn2C1=O)(C(=O)NO)S(C)(=O)=O [Example 47, (2R)-4-(6-((4-fluoro-1-(oxetan-3-yl)piperidin-4-yl)buta-1,3-diyn-1-yl)-3-oxo-1H-pyrrolo[1,2-c]imidazol-2(3H)-yl)-N-hydroxy-2-methyl-2-(methylsulfonyl)butanamide]",0.5 µg/mL,2 µg/mL,2 µg/mL,–,–,–
"CN1CC(F)(c2ccc(C#Cc3cc4n(c3)C(=O)N(CC[C@](C)(C(=O)NO)S(C)(=O)=O)C4)cc2)C1 [Example 20, (2R)-4-(6-((4-(3-fluoro-1-methylazetidin-3-yl)phenyl)ethynyl)-3-oxo-1H-pyrrolo[1,2-c]imidazol-2(3H)-yl)-N-hydroxy-2-methyl-2-(methylsulfonyl)butanamide]",0.125 µg/mL,0.25 µg/mL,1 µg/mL,–,–,–
"CN1CCC(O)(C#CC#Cc2cc3n(c2)C(=O)N(CC[C@](C)(C(=O)NO)S(C)(=O)=O)C3)CC1 [Example 48, (2R)—N-hydroxy-4-(6-((4-hydroxy-1-methylpiperidin-4-yl)buta-1,3-diyn-1-yl)-3-oxo-1H-pyrrolo[1,2-c]imidazol-2(3H)-yl)-2-methyl-2-(methylsulfonyl)butanamide]",> 8 µg/mL,> 8 µg/mL,4 µg/mL,–,–,–
"C[C@@](CCN1Cc2cc(C#CC#CCOC(=O)N3CCC(O)CC3)cn2C1=O)(C(=O)NO)S(C)(=O)=O [Example 8, (3R)-5-(2-(4-(hydroxyamino)-3-methyl-3-(methylsulfonyl)-4-oxobutyl)-3-oxo-2,3-dihydro-1H-pyrrolo[1,2-c]imidazol-6-yl)penta-2,4-diyn-1-yl 4-hydroxypiperidine-1-carboxylate]",1 µg/mL,2 µg/mL,2 µg/mL,–,–,–
"C[C@@](CCN1Cc2cc(C#Cc3ccc(CN4CC[C@H](O)C(F)(F)C4)cc3)cn2C1=O)(C(=O)NO)S(C)(=O)=O [Example 37, (2R)-4-(6-((4-(((S)-3,3-difluoro-4-hydroxypiperidin-1-yl)methyl)phenyl)ethynyl)-3-oxo-1H-pyrrolo[1,2-c]imidazol-2(3H)-yl)-N-hydroxy-2-methyl-2-(methylsulfonyl)butanamide]",0.5 µg/mL,0.5 µg/mL,2 µg/mL,–,–,–
"C[C@@](CCN1Cc2cc(C#Cc3ccc(CN4CC[C@H](N)[C@@H](F)C4)cc3)cn2C1=O)(C(=O)NO)S(C)(=O)=O (relative stereo) [Example 13, (2R)-4-(6-((4-(((3S*,4S*)-4-amino-3-fluoropiperidin-1-yl)methyl)phenyl)ethynyl)-3-oxo-1H-pyrrolo[1,2-c]imidazol-2(3H)-yl)-N-hydroxy-2-methyl-2-(methylsulfonyl)butanamide]",1 µg/mL,1 µg/mL,1 µg/mL,–,–,–
"CN1CCN(C(=O)OCC2(C#CC#Cc3cc4n(c3)C(=O)N(CC[C@](C)(C(=O)NO)S(C)(=O)=O)C4)CC2)CC1 [Example 23, (3R)-(1-((2-(4-(hydroxyamino)-3-methyl-3-(methylsulfonyl)-4-oxobutyl)-3-oxo-2,3-dihydro-1H-pyrrolo[1,2-c]imidazol-6-yl)buta-1,3-diyn-1-yl)cyclopropyl)methyl 4-methylpiperazine-1-carboxylate]",4 µg/mL,4 µg/mL,8 µg/mL,–,–,–

# Continued, in another order:
MIC (E. coli ATCC25922),MIC (K. pneumoniae A-651),MIC (P. aeruginosa ATCC27853),Compound,MIC for E. coli ATCC25922 (E. coli ATCC25922),MIC for K. Pneumoniae A-651 (K. pneumoniae A-651),MIC for P. aeruginosa ATCC27853 (P. aeruginosa ATCC27853)
0.5 µg/mL,2 µg/mL,2 µg/mL,"C[C@@](CCN1Cc2cc(-c3ccc(C#CC4CN(CCO)C4)cc3F)cn2C1=O)(C(=O)NO)S(C)(=O)=O [Example 88, (2R)-4-(6-(2-fluoro-4-((1-(2-hydroxyethyl)azetidin-3-yl)ethynyl)phenyl)-3-oxo-1H-pyrrolo[1,2-c]imidazol-2(3H)-yl)-N-hydroxy-2-methyl-2-(methylsulfonyl)butanamide]",–,–,–
4 µg/mL,4 µg/mL,2 µg/mL,"C[C@@H]1[C@H](C#CC#Cc2cc3n(c2)C(=O)N(CC[C@](C)(C(=O)NO)S(C)(=O)=O)C3)CN1C [Example 96, (2R)-4-(6-(((2R,3R)-1,2-dimethylazetidin-3-yl)buta-1,3-diyn-1-yl)-3-oxo-1H-pyrrolo[1,2-c]imidazol-2(3H)-yl)-N-hydroxy-2-methyl-2-(methylsulfonyl)butanamide]",–,–,–
0.125 µg/mL,0.125 µg/mL,1 µg/mL,"C[C@@](CCN1Cc2cc(C#CC#CC3CN(C4CCC4)C3)cn2C1=O)(C(=O)NO)S(C)(=O)=O [Example 62, (2R)-4-(6-((1-cyclobutylazetidin-3-yl)buta-1,3-diyn-1-yl)-3-oxo-1H-pyrrolo[1,2-c]imidazol-2(3H)-yl)-N-hydroxy-2-methyl-2-(methylsulfonyl)butanamide]",–,–,–
0.25 µg/mL,0.25 µg/mL,1 µg/mL,"C[C@@](CCN1Cc2cc(C#CC#CC3CN(C4CCOCC4)C3)cn2C1=O)(C(=O)NO)S(C)(=O)=O [Example 74, (2R)—N-hydroxy-2-methyl-2-(methylsulfonyl)-4-(3-oxo-6-((1-(tetrahydro-2H-pyran-4-yl)azetidin-3-yl)buta-1,3-diyn-1-yl)-1H-pyrrolo[1,2-c]imidazol-2(3H)-yl)butanamide]",–,–,–
0.125 µg/mL,0.25 µg/mL,0.5 µg/mL,"C[C@@](CCN1Cc2cc(C#CC#CC3CN(C4CCCCC4)C3)cn2C1=O)(C(=O)NO)S(C)(=O)=O [Example 70, (2R)-4-(6-((1-cyclohexylazetidin-3-yl)buta-1,3-diyn-1-yl)-3-oxo-1H-pyrrolo[1,2-c]imidazol-2(3H)-yl)-N-hydroxy-2-methyl-2-(methylsulfonyl)butanamide]",–,–,–
0.125 µg/mL,0.5 µg/mL,0.063 µg/mL,"C[C@@](CCN1Cc2cc(C#CC#CC3CN(C4CC4)C3)cn2C1=O)(C(=O)NO)S(C)(=O)=O [Example 57, (2R)-4-(6-((1-cyclopropylazetidin-3-yl)buta-1,3-diyn-1-yl)-3-oxo-1H-pyrrolo[1,2-c]imidazol-2(3H)-yl)-N-hydroxy-2-methyl-2-(methylsulfonyl)butanamide]",–,–,–
0.125 µg/mL,0.25 µg/mL,1 µg/mL,"C[C@@](CCN1Cc2cc(C#CC#CC3CN(CC4CC4)C3)cn2C1=O)(C(=O)NO)S(C)(=O)=O [Example 55, (2R)-4-(6-((1-(cyclopropylmethyl)azetidin-3-yl)buta-1,3-diyn-1-yl)-3-oxo-1H-pyrrolo[1,2-c]imidazol-2(3H)-yl)-N-hydroxy-2-methyl-2-(methylsulfonyl)butanamide]",–,–,–
